This note sets out measurements from patent US6521641B1, “Male anti-fertility agents” (Allergan, Inc., priority 1998, dated 2003).

Where two headings read alike, the source gives them in different places.

Series [1] in a line: Toxicokinetics of oral AGN 194310 in rats (drug in blood by GC/MS). In kind it is in vivo, rat. As to conditions: for Tmax / Cmax / AUC(0-t): both sexes, Sprague-Dawley, rat, whole blood; for Tmax: Day 22; for Cmax / AUC(0-t): po; for Cmax: N = 8; for AUC(0-t): N = 8, read-out: AUC24 hr. On the procedure: The concentration of drug in the blood was determined from blood drawn from the retro-orbital sinus of the right eye on Day 7 of the study as follows: for rats in groups 7 through 9 (4/sex/group/timepoint, with each animal being bled no more than 3 times), blood (approximately 1 ml) was drawn prior to being given the drug, and at approximately 2, 6, 8, 12 and 24 hours post-dosing. The vehicle-treated rats (group 6) were bled at approximately 8 and 24 hours post-dosing. The rats in groups 6 through 9 were similarly bled on Day 22 of the study, then euthanized. All blood was drawn into tubes containing EDTA to prevent coagulation, and placed on ice prior to analysis. The blood was assayed for the presence of AGN 194310 by gas chromatography/mass spectrometry.
AGN 194310 was systemically absorbed following oral administration to rats and approached the peak concentration in plasma (Cmax) at 2 or 6 hours post dosing (Tmax).

Series [2] in a line: Excretion of the drug (separate experiment). In kind it is in vivo. As to conditions: within 2 weeks following treatment.

With `CCc1ccc(C2=CC(C)(C)Sc3ccc(C#Cc4ccc(C(=O)O)cc4)cc32)cc1` [AGN 194310, 4-[[4-(4-ethylphenyl)-2,2-dimethyl-(2H)-thiochromen-6-yl]-ethynyl]-benzoic acid], the “systemic exposure to AGN 194310” value in series [1] (across the concentrations of AGN 194310) is “dose dependent increase”. Moreover, the Tmax is 2 h in series [1] (0.005 mg/kg/day), 2 h in series [1] (0.015 mg/kg/day) and 6 h in series [1] (0.15 mg/kg/day). Also, the Cmax worked out at 1.83 ± 0.55 ng/mL in series [1] (0.005 mg/kg/day, 0.001% AGN 194310 (0.005 mg/kg/day), Day 7, mean ± SD); 1.97 ± 0.75 ng/mL in series [1] (0.005 mg/kg/day, 0.001% AGN 194310 (0.005 mg/kg/day), Day 22, mean ± SD); 4.73 ± 1.2 ng/mL in series [1] (0.015 mg/kg/day, 0.003% AGN 194310 (0.015 mg/kg/day), Day 7, mean ± SD); 5.32 ± 1.56 ng/mL in series [1] (0.015 mg/kg/day, 0.003% AGN 194310 (0.015 mg/kg/day), Day 22, mean ± SD); 43.1 ± 7.2 ng/mL in series [1] (0.15 mg/kg/day, 0.01% AGN 194310 (0.15 mg/kg/day), Day 7, mean ± SD); 42.4 ± 9.3 ng/mL in series [1] (0.15 mg/kg/day, 0.01% AGN 194310 (0.15 mg/kg/day), Day 22, mean ± SD). Moreover, the AUC(0-t) in series [1] (0.005 mg/kg/day, Day 7, mean ± SEM) turned out to be 19.6 ± 1.1 ng·h/mL; in series [1] (0.005 mg/kg/day, Day 22, mean ± SEM), 20.8 ± 1.1 ng·h/mL; in series [1] (0.015 mg/kg/day, Day 7, mean ± SEM), 57.6 ± 2.6 ng·h/mL; in series [1] (0.015 mg/kg/day, Day 22, mean ± SEM) it was 63.6 ± 2.7 ng·h/mL; in series [1] (0.15 mg/kg/day, Day 7, mean ± SEM) it was 668 ± 24 ng·h/mL; in series [1] (0.15 mg/kg/day, Day 22, mean ± SEM), 675 ± 25 ng·h/mL. The same molecule yielded a drug excreted in series [2] of 88%.
